Test system: 648629-189-R-J1-PDC spheroids with HUVEC/MSC, viability
Assay: Anticancer human tumor 648629-189-R-J1-PDC patient-derived bladder carcinoma cell line growth inhibition [PI3K]
Conditions: for IC50: curve of first compound; for viability, T/C: stronger effect = lower value
Source text: Combinatorial screen of targeted agents with the PI3K inhibitors inavolisib, alpelisib, duvelisib, and copanlisib in multi-cell type tumor spheroids
A high-throughput screen of multi-cell type tumor spheroids was designed to identify active combinations of targeted small molecules and PI3K pathway inhibitors. Complex spheroids include a stromal component modeled by human endothelial cells (HUVEC) and fibroblasts modeled by human mesenchymal stem cells (MSCs). The concentration ranges selected for each drug and investigational agent were based upon clinically achievable concentrations if the clinical Cmax of the agent was known.
Compounds. The drugs and investigational agents: inavolisib (NSC800729), alpelisib (NSC765974), duvelisib (NSC772469), copanlisib (NSC816437), ipatasertib (NSC767898), afuresertib (NSC778305), talazoparib (NSC767125), sapanisertib (NSC764658), selumetinib (NSC741078), tovorafenib (DAY101, NSC766906), vemurafenib (NSC761431), ravoxertinib (NSC781343), sotorasib (NSC818433), MRTX1133 (NSC 836407), abemaciclib (NSC 768073), palbociclib (NSC758247), venetoclax (NSC 766270), SY5609 (NSC837396), enzalutamide (NSC755605), and darolutamide (NSC825331), were obtained from the National Cancer Institute (NCI) Developmental Therapeutics Program Chemical Repository. The FDA-approved anticancer drug set is available from the NCI Developmental Therapeutics Program. […] The stock solutions were prepared in dimethyl sulfoxide (DMSO, Sigma-Aldrich, St. Louis, MO, cat. D2650) at 800-fold the tested concentration and stored at -70 degrees C prior to their use. All drugs and investigational agents were tested over a range starting from a high concentration at or near the clinical Cmax and decreasing in half-log increments. If the clinical Cmax for an agent had not been determined, the highest concentration tested was 10 microM.
Cell Culture. All cells were maintained in an incubator at 37 degrees C and 5% CO2 with 95% humidity. The PDC lines were cultured according to standard operating procedures established by the NCI PDMR (https://pdmr.cancer.gov/sops/default.htm). All PDCs were thawed and cultured in Matrigel-coated flasks prepared with a working solution of 1X Ham's F-12 nutrient mix, without supplementation (Invitrogen, Waltham, MA, cat. 11765054), 100 U/mL penicillin-streptomycin (Invitrogen, cat. 15140122), and 2.5% Matrigel (Corning Inc., Corning, NY, cat. 354248) for the first three passages. The 354836-022-R-J1-PDC, 475296-252-R-J1-PDC, and 997726-040-R-J2-PDC lines were cultured in 6A media, which includes advanced DMEM/F-12 (Thermo Fisher Scientific, cat. 12634028), 10 mM HEPES (Thermo Fisher Scientific, cat. 15630080), 1X GlutaMAX supplement (Thermo Fisher Scientific, cat. 35050061), 0.1 mg/mL primocin (InvivoGen, San Diego, CA, cat. ant-pm-2), 10% defined fetal bovine serum, heat inactivated (HyClone Laboratories Inc., Logan, UT, cat. SH30070.03HI), 50% L-WRN conditioned media (ATCC, cat. CRL-3276), 1.25 mM N-Acetyl-L-cysteine (Sigma-Aldrich, cat. A9165), 10 mM nicotinamide (Sigma-Aldrich, cat. N0636), 1X B-27 supplement (Thermo Fisher Scientific, cat. 17504044), 1X N-2 supplement (Thermo Fisher Scientific, cat. 17502048), and 10 microM Y-27632 dihydrochloride (Tocris Bioscience, Bristol, United Kingdom, cat. 1254). The 624824-186-R-J2-PDC line was cultured in 6C/Colon 1B media, which includes all 6A media components plus 50 ng/mL human EGF recombinant protein (Thermo Fisher Scientific, cat. PHG0311). […]

[1] = second compound 0.00316 µM, first compound 0.0316 µM
[2] = second compound 0.00316 µM, first compound 0.1 µM
[3] = second compound 0.00316 µM, first compound 0.316 µM
[4] = second compound 0.00316 µM, first compound 1 µM
[5] = second compound 0.00316 µM, first compound 3.16 µM
[6] = second compound 0.00316 µM, first compound 10 µM
[7] = second compound 0.01 µM, first compound 0.0316 µM
[8] = second compound 0.01 µM, first compound 0.1 µM
[9] = second compound 0.01 µM, first compound 0.316 µM
[10] = second compound 0.01 µM, first compound 1 µM
[11] = second compound 0.01 µM, first compound 3.16 µM
[12] = second compound 0.01 µM, first compound 10 µM
[13] = second compound 0.0316 µM, first compound 0.0316 µM
[14] = second compound 0.0316 µM, first compound 0.1 µM
[15] = second compound 0.0316 µM, first compound 0.316 µM
[16] = second compound 0.0316 µM, first compound 1 µM
[17] = second compound 0.0316 µM, first compound 3.16 µM
[18] = second compound 0.0316 µM, first compound 10 µM
[19] = second compound 0.1 µM, first compound 0.0316 µM
[20] = second compound 0.1 µM, first compound 0.1 µM
[21] = second compound 0.1 µM, first compound 0.316 µM
[22] = second compound 0.1 µM, first compound 1 µM
[23] = second compound 0.1 µM, first compound 3.16 µM
[24] = second compound 0.1 µM, first compound 10 µM
[25] = second compound 0.316 µM, first compound 0.0316 µM
[26] = second compound 0.316 µM, first compound 0.1 µM
[27] = second compound 0.316 µM, first compound 0.316 µM
[28] = second compound 0.316 µM, first compound 1 µM
[29] = second compound 0.316 µM, first compound 3.16 µM
[30] = second compound 0.316 µM, first compound 10 µM
[31] = second compound 1 µM, first compound 0.0316 µM
[32] = second compound 1 µM, first compound 0.1 µM
[33] = second compound 1 µM, first compound 0.316 µM
[34] = second compound 1 µM, first compound 1 µM
[35] = second compound 1 µM, first compound 3.16 µM
[36] = second compound 1 µM, first compound 10 µM
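Further: spheroids exposed to agents for seven days before reading.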
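Wherever viability, T/C is given: percent of vehicle control luminescence where 100% = DMSO treated spheroids.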

## CC1(C)CCC(CN2CCN(c3ccc(C(=O)NS(=O)(=O)c4ccc(NCC5CCOCC5)c([N+](=O)[O-])c4)c(Oc4cnc5[nH]ccc5c4)c3)CC2)=C(c2ccc(Cl)cc2)C1 + CC(Nc1ccc2c(c1)OCCn1cc(N3C(=O)OCC3C(F)F)nc1-2)C(N)=O
Second compound 0.00316 µM
  IC50: 4.77 µM
Second compound 0.01 µM
  IC50: 4.84 µM
Second compound 0.0316 µM
  IC50: 4.55 µM
Second compound 0.1 µM
  IC50: 5.28 µM
Second compound 0.316 µM
  IC50: 4.45 µM
Second compound 1 µM
  IC50: 4.34 µM
[1]
  viability, T/C: 101%
[2]
  viability, T/C: 90.9%
[3]
  viability, T/C: 92.9%
[4]
  viability, T/C: 80.7%
[5]
  viability, T/C: 76.7%
[6]
  viability, T/C: 8.54%
[7]
  viability, T/C: 122%
[8]
  viability, T/C: 88.3%
[9]
  viability, T/C: 106%
[10]
  viability, T/C: 86%
[11]
  viability, T/C: 80.7%
[12]
  viability, T/C: 7.49%
[13]
  viability, T/C: 110%
[14]
  viability, T/C: 102%
[15]
  viability, T/C: 98.2%
[16]
  viability, T/C: 89.5%
[17]
  viability, T/C: 71.3%
[18]
  viability, T/C: 9.16%
[19]
  viability, T/C: 84.5%
[20]
  viability, T/C: 99.8%
[21]
  viability, T/C: 90.5%
[22]
  viability, T/C: 95.6%
[23]
  viability, T/C: 83.8%
[24]
  viability, T/C: 7.86%
[25]
  viability, T/C: 74.7%
[26]
  viability, T/C: 76%
[27]
  viability, T/C: 79.4%
[28]
  viability, T/C: 77.6%
[29]
  viability, T/C: 67.5%
[30]
  viability, T/C: 7.9%
[31]
  viability, T/C: 74.2%
[32]
  viability, T/C: 63.4%
[33]
  viability, T/C: 62.5%
[34]
  viability, T/C: 67.3%
[35]
  viability, T/C: 65.7%
[36]
  viability, T/C: 8.61%

## C[C@@H](NC(=O)c1ncnc(N)c1Cl)c1ncc(C(=O)Nc2cc(C(F)(F)F)c(Cl)cn2)s1 + CC(Nc1ccc2c(c1)OCCn1cc(N3C(=O)OCC3C(F)F)nc1-2)C(N)=O
Second compound 0.00316 µM
  IC50: > 10 µM
Second compound 0.01 µM
  IC50: > 10 µM
Second compound 0.0316 µM
  IC50: > 10 µM
Second compound 0.1 µM
  IC50: > 10 µM
Second compound 0.316 µM
  IC50: > 10 µM
Second compound 1 µM
  IC50: > 10 µM
[1]
  viability, T/C: 106%
[2]
  viability, T/C: 99.1%
[3]
  viability, T/C: 112%
[4]
  viability, T/C: 115%
[5]
  viability, T/C: 108%
[6]
  viability, T/C: 116%
[7]
  viability, T/C: 111%
[8]
  viability, T/C: 98.8%
[9]
  viability, T/C: 115%
[10]
  viability, T/C: 99.3%
[11]
  viability, T/C: 112%
[12]
  viability, T/C: 101%
[13]
  viability, T/C: 109%
[14]
  viability, T/C: 105%
[15]
  viability, T/C: 97.4%
[16]
  viability, T/C: 102%
[17]
  viability, T/C: 106%
[18]
  viability, T/C: 106%
[19]
  viability, T/C: 103%
[20]
  viability, T/C: 97.8%
[21]
  viability, T/C: 105%
[22]
  viability, T/C: 110%
[23]
  viability, T/C: 98.3%
[24]
  viability, T/C: 97.8%
[25]
  viability, T/C: 94.8%
[26]
  viability, T/C: 93.9%
[27]
  viability, T/C: 83.7%
[28]
  viability, T/C: 86.2%
[29]
  viability, T/C: 96.2%
[30]
  viability, T/C: 86.4%
[31]
  viability, T/C: 76.2%
[32]
  viability, T/C: 74.2%
[33]
  viability, T/C: 69.3%
[34]
  viability, T/C: 77.2%
[35]
  viability, T/C: 78%
[36]
  viability, T/C: 65.5%

— PubChem BioAssay AID1963974 (Molecular Pharmacology Branch, DTP, NCI, 2024)
